For orientation: EC50 means the concentration at which the effect is half-maximal. Read a high EC50 as weaker potency.

The target in the test is T1, human GPR119 (Homo sapiens, UniProt Q8TDV5).
T1 construct: expression vector for human GPR119 cDNA (Acc. No. NP_848566); expressed in transfected cells; Min-6/hGPR119
T1 sequence (Q8TDV5 1-335): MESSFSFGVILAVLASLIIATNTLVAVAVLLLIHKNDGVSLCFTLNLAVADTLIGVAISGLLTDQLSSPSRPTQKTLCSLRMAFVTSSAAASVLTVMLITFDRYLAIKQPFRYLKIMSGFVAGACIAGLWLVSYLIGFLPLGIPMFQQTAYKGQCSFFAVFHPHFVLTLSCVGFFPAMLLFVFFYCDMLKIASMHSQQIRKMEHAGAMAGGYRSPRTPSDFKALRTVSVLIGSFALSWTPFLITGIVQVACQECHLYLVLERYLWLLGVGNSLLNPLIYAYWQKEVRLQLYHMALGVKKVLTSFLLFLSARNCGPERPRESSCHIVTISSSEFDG
Kind of test: AlphaScreen cAMP assay in MIN6 cells stably transfected with human GPR119. The settings on record: Min-6/hGPR119 cells, 45 min at room temperature. The test is classed as cell-based. The gist of the method:
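MIN6 cells stably expressing human GPR119, seeded 10000/well and grown 24 h, were exposed to compound in pH 7.4 buffer with 0.5 mM IBMX, 0.1% BSA and 1% DMSO for 45 min at room temperature. Intracellular cAMP then measured by AlphaScreen.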
In general terms: Bead proximity is the source of the signal in Alpha formats.
Molecule `CC(C)(C)OC(=O)N1CCC(N(C(=O)c2cnc(-c3cncnc3)nc2)C2CC2)CC1` [Example 71, 4-[([2,5′]Bipyrimidinyl-5-carbonyl)-cyclopropyl-amino]-piperidine-1-carboxylic acid tert-butyl ester] showed an EC50 of 90 nM. That is a double-digit nanomolar value.

For the molecule `CN(CCO)C(=O)c1ccc(-c2ncc(C(=O)N(C3CC3)C3CCN(C(=O)OC(C)(C)C)CC3)cn2)cc1F` [Example 113, 4-[Cyclopropyl-(2-{3-fluoro-4-[(2-hydroxy-ethyl)-methyl-carbamoyl]-phenyl}-pyrimidine-5-carbonyl)-amino]-piperidine-1-carboxylic acid tert-butyl ester], the EC50 came out at 597 nM.

With `CC(C)(C)OC(=O)N1CCC(N(C(=O)c2ncc(-c3ccc(C#N)nc3)cn2)C2CC2)CC1` [Example 69, 4-{[5-(6-Cyano-pyridin-3-yl)-pyrimidine-2-carbonyl]-cyclopropyl-amino}-piperidine-1-carboxylic acid tert-butyl ester], the EC50 worked out at 1120 nM.

Molecule `CC(C)(C)OC(=O)N1CCC(N(C(=O)c2cnc(-c3ccc(C(=O)NCc4cccnc4)c(F)c3)nc2)C2CC2)CC1` [Example 165, 4-[Cyclopropyl-(2-{3-fluoro-4-[(pyridin-3-ylmethyl)-carbamoyl]-phenyl}-pyrimidine-5-carbonyl)-amino]-piperidine-1-carboxylic acid tert-butyl ester] came in with a half-maximal effective concentration (EC50) of 173 nM.

Turning to `CN(CC1CCOC1)C(=O)c1ccc(-c2ncc(C(=O)N(C3CC3)C3CCN(C(=O)OC(C)(C)C)CC3)cn2)c(F)c1` (centres unmarked) [Example 148, 4-[Cyclopropyl-(2-{2-fluoro-4-[methyl-(tetrahydro-furan-3-ylmethyl)-carbamoyl]-phenyl}-pyrimidine-5-carbonyl)-amino]-piperidine-1-carboxylic acid tert-butyl ester], a half-maximal response (EC50) required 395 nM.

On to `CC(C)(C)OC(=O)N1CCC(N(C(=O)c2cnc(-c3ccc(OC(F)(F)F)cc3)nc2)C2CC2)CC1` [Example 77, 4-{Cyclopropyl-[2-(4-trifluoromethoxy-phenyl)-pyrimidine-5-carbonyl]-amino}-piperidine-1-carboxylic acid tert-butyl ester], for which the EC50 came to 55 nM. This EC50 is about 7.2-fold lower than that of the molecule before.

With `CC(C)(C)OC(=O)N1CCC(N(C(=O)c2cnc(-c3ccc(C(=O)Nc4ccn[nH]4)c(F)c3)nc2)C2CC2)CC1` [Example 112, 4-(Cyclopropyl-{2-[3-fluoro-4-(2H-pyrazol-3-ylcarbamoyl)-phenyl]-pyrimidine-5-carbonyl}-amino)-piperidine-1-carboxylic acid tert-butyl ester], the 50% effective concentration (EC50) stood at 220 nM.

As to `COCCNC(=O)c1ccc(-c2ncc(C(=O)N(C3CC3)C3CCN(C(=O)OC(C)(C)C)CC3)cn2)cc1F` [Example 167, 4-(Cyclopropyl-{2-[3-fluoro-4-(2-methoxy-ethylcarbamoyl)-phenyl]-pyrimidine-5-carbonyl}-amino)-piperidine-1-carboxylic acid tert-butyl ester], the EC50 was found to be 146 nM.

Molecule `COCCNC(=O)c1ccc(-c2ncc(C(=O)N(C3CC3)C3CCN(C(=O)OC(C)(C)C)CC3)cn2)cc1` [Example 243, 4-(Cyclopropyl-{2-[4-(2-methoxy-ethylcarbamoyl)-phenyl]-pyrimidine-5-carbonyl}-amino)-piperidine-1-carboxylic acid tert-butyl ester] displayed a concentration giving a half-maximal response (EC50) of 309 nM. Compared with the last molecule, the EC50 is about 2.1-fold higher.

With `Cc1c(C(=O)N(C2CC2)C2CCN(C(=O)OC(C)(C)C)CC2)noc1-c1ccc(C#N)c(F)c1` [Example 45, 4-{[5-(4-Cyano-3-fluoro-phenyl)-4-methyl-isoxazole-3-carbonyl]-cyclopropyl-amino}-piperidine-1-carboxylic acid tert-butyl ester], the half-maximal effective concentration (EC50) stood at 25 nM.

In the case of `CC(C)(C)OC(=O)N1CCC(N(C(=O)c2cnc(-c3ccc(C(=O)N4CCCOCC4)cc3)nc2)C2CC2)CC1` [Example 178, 4-(Cyclopropyl-{2-[4-([1,4]oxazepane-4-carbonyl)-phenyl]-pyrimidine-5-carbonyl}-amino)-piperidine-1-carboxylic acid tert-butyl ester], the EC50 worked out at 237 nM.

Source of the values: US20140045823A1 (Neurocrine Biosciences, Inc., priority 2012, published 2014).
